Assay results: patent publication US20090069320A1, “Substituted 4-Amino-Quinazoline Compounds with Metabotropic Glutamate Receptor Regulating Activity and Uses Thereof” (Gruenenthal GmbH, priority 2006, published 2009)

The molecules below were run against T1, mGluR5 receptor (Sus scrofa, UniProt I3LUI7) (assay: [3H]-MPEP mGluR5 receptor binding assay (pig brain homogenate)). Details: 5 nM [3H]-MPEP, read-out: IC50 mGluR5 Receptor (pig) [^3H]-MPEP Bond.
T1 construct: 450 μg of protein from brain homogenate with 5 nM ^3[H]-MPEP; from tissue; host or cells: pig brain halves without medulla, cerebellum and pons
T1 sequence (I3LUI7 19-1212): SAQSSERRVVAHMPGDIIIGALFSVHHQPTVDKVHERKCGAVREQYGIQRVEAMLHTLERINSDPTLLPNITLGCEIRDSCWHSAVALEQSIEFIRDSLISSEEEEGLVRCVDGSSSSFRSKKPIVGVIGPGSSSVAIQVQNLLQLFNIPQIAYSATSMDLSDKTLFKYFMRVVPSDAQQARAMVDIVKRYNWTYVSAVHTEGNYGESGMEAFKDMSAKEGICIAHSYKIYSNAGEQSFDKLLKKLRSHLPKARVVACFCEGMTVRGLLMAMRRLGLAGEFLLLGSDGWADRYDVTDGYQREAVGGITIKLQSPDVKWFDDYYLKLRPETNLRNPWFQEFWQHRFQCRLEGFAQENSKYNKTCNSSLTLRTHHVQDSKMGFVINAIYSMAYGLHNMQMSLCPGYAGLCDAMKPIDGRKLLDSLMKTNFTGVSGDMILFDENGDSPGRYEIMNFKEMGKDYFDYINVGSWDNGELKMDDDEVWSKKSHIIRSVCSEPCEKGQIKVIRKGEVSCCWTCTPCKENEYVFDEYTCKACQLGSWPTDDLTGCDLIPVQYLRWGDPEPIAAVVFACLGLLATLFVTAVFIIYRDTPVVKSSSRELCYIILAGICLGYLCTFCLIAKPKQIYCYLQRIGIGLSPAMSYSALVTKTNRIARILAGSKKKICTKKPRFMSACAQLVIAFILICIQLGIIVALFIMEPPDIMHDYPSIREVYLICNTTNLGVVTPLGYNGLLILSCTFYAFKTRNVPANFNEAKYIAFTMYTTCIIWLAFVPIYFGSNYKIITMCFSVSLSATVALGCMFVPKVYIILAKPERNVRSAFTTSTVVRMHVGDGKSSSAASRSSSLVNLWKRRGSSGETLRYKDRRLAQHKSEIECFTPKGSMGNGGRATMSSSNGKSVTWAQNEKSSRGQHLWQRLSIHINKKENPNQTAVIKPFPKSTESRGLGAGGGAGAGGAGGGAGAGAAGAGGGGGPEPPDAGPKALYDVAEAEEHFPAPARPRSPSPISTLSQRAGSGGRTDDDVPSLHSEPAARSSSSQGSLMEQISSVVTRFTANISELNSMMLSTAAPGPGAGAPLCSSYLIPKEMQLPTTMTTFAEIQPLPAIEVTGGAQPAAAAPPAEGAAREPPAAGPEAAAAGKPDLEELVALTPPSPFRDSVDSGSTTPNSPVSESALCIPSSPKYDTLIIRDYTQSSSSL
Procedure, shortened: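 Compounds at 10 μM competed with 5 nM [3H]-MPEP for binding to pig brain membranes (450 μg protein) for 60 min at room temperature in pH 8.0 Hepes buffer. Bound radioactivity was collected on glass-fibre filters and read by β-counting, with 10 μM unlabelled MPEP giving non-specific binding.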

Molecule `COCC(=O)N(Cc1cc(-c2ccc3ncnc(NC4CC4)c3c2)ccc1F)C1CC1` [Example 390, N-cyclopropyl-N-(5-(4-(cyclopropylamino)quinazolin-6-yl)-2-fluorobenzyl)-2-methoxyacetamide] has an IC50 of 70 nM.

Same assay, conditions: 10 μM compound, 5 nM [3H]-MPEP

First: O=S(=O)(c1cccc(C(F)(F)F)c1)N(Cc1cc(-c2ccc3ncnc(NC4CC4)c3c2)ccc1F)C1CC1 [Example 375, N-cyclopropyl-N-(5-(4-(cyclopropylamino)quinazolin-6-yl)-2-fluorobenzyl)-3-(trifluoromethyl)benzole sulfonamide]
Second: COc1ccc(S(=O)(=O)N(Cc2cc(-c3ccc4ncnc(NC5CC5)c4c3)ccc2F)C2CC2)cc1 [Example 383, N-cyclopropyl-N-(5-(4-(cyclopropylamino)quinazolin-6-yl)-2-fluorobenzyl)-4-methoxybenzole sulfonamide]
The “% Inhibition of mGluR5 Receptor (pig) [^3H]-MPEP Bond at 10 μM” value of the first is lower: 34% for the first, 69% for the second.

Compared with `O=S(=O)(c1ccc(Cl)cc1Cl)N(Cc1cc(-c2ccc3ncnc(NC4CC4)c3c2)ccc1F)C1CC1` [Example 391, 2,4-dichloro-N-cyclopropyl-N-(5-(4-(cyclopropylamino)quinazolin-6-yl)-2-fluorobenzyl)benzole sulfonamide], `O=S(=O)(c1c(F)c(F)c(F)c(F)c1F)N(Cc1cc(-c2ccc3ncnc(NC4CC4)c3c2)ccc1F)C1CC1` [Example 399, N-cyclopropyl-N-(5-(4-(cyclopropylamino)quinazolin-6-yl)-2-fluorobenzyl)-2,3,4,5,6-pentafluorobenzole sulfonamide] is lower in “% Inhibition of mGluR5 Receptor (pig) [^3H]-MPEP Bond at 10 μM” value: 74% for the first, 39% for the second.

Same assay, conditions: 10 μM compound, 5 nM [3H]-MPEP, read-out: % Inhibition of mGluR5 Receptor (pig) [^3H]-MPEP Bond at 10 μM

Going from `O=C(c1ccncc1)N(Cc1cccc(-c2ccc3ncnc(NCCc4ccccc4)c3c2)c1)C1CC1` [Example 377, N-cyclopropyl-N-(3-(4-(phenethylamino)quinazolin-6-yl)benzyl)isonicotinamide] to `O=C(c1cccnc1)N(Cc1cccc(-c2ccc3ncnc(NCCc4ccccc4)c3c2)c1)C1CC1` [Example 385, N-cyclopropyl-N-(3-(4-(phenethylamino)quinazolin-6-yl)benzyl)nicotinamide], the inhibition at 10 µM falls from 59% to 35%.

Going from `Cc1cccc(CNc2ncnc3ccc(-c4cccc(CN(C5CC5)S(C)(=O)=O)c4)cc23)c1` [Example 380, N-cyclopropyl-N-(3-(4-(3-methylbenzylamino)quinazolin-6-yl)benzyl)methane sulfonamide] to `CC(=O)N(Cc1cccc(-c2ccc3ncnc(NCc4cccc(C)c4)c3c2)c1)C1CC1` [Example 419, N-cyclopropyl-N-(3-(4-(3-methylbenzylamino)quinazolin-6-yl)benzyl)acetamide], the inhibition at 10 µM rises from 46% to 76%.

Going from `O=C(c1ccc(F)cc1F)N(Cc1cc(-c2ccc3ncnc(NC4CC4)c3c2)ccc1F)C1CC1` [Example 381, N-cyclopropyl-N-(5-(4-(cyclopropylamino)quinazolin-6-yl)-2-fluorobenzyl)-2,4-difluorobenzamide] to `O=C(c1ccc(C(F)(F)F)cc1F)N(Cc1cc(-c2ccc3ncnc(NC4CC4)c3c2)ccc1F)C1CC1` [Example 397, N-cyclopropyl-N-(5-(4-(cyclopropylamino)quinazolin-6-yl)-2-fluorobenzyl)-2-fluoro-4-(trifluoromethyl)benzamide], the inhibition at 10 µM falls from 90% to 87%.

Going from `CCCCC(=O)N(Cc1cc(-c2ccc3ncnc(NC4CC4)c3c2)ccc1F)C1CC1` [Example 382, N-cyclopropyl-N-(5-(4-(cyclopropylamino)quinazolin-6-yl)-2-fluorobenzyl)pentanamide] to `CN(C)CC(=O)N(Cc1cc(-c2ccc3ncnc(NC4CC4)c3c2)ccc1F)C1CC1` [Example 398, N-cyclopropyl-N-(5-(4-(cyclopropylamino)quinazolin-6-yl)-2-fluorobenzyl)-2-(dimethylamino)acetamide], the inhibition at 10 µM falls from 89% to 63%.

Compared with `O=C(c1c(F)c(F)c(F)c(F)c1F)N(Cc1cc(-c2ccc3ncnc(NC4CC4)c3c2)ccc1F)C1CC1` [Example 389, N-cyclopropyl-N-(5-(4-(cyclopropylamino)quinazolin-6-yl)-2-fluorobenzyl)-2,3,4,5,6-pentafluorobenzamide], `O=C(c1cccc(C(F)(F)F)c1)N(Cc1cc(-c2ccc3ncnc(NC4CC4)c3c2)ccc1F)C1CC1` [Example 405, N-cyclopropyl-N-(5-(4-(cyclopropylamino)quinazolin-6-yl)-2-fluorobenzyl)-3-(trifluoromethyl)benzamide] is lower in inhibition at 10 µM: 91% for the first, 77% for the second.

Compared with `CC(=O)N(Cc1cccc(-c2ccc3ncnc(NCCc4ccccc4)c3c2)c1)C1CC1` [Example 393, N-cyclopropyl-N-(3-(4-(phenethylamino)quinazolin-6-yl)benzyl)acetamide], `CC(C)(C)C(=O)N(Cc1cccc(-c2ccc3ncnc(NCCc4ccccc4)c3c2)c1)C1CC1` [Example 401, N-cyclopropyl-N-(3-(4-(phenethylamino)quinazolin-6-yl)benzyl)pivalamide] is lower in inhibition at 10 µM: 95% for the first, 36% for the second.

First: Cc1cccc(CNc2ncnc3ccc(-c4cccc(CN(C(=O)c5ccccn5)C5CC5)c4)cc23)c1 [Example 395, N-cyclopropyl-N-(3-(4-(3-methylbenzylamino)quinazolin-6-yl)benzyl)picolinamide]
Second: Cc1cccc(CNc2ncnc3ccc(-c4cccc(CN(C(=O)c5cccnc5)C5CC5)c4)cc23)c1 [Example 411, N-cyclopropyl-N-(3-(4-(3-methylbenzylamino)quinazolin-6-yl)benzyl)nicotinamide]
The inhibition at 10 µM of the first is higher: 44% for the first, 34% for the second.

Compared with `Cc1cccc(CNc2ncnc3ccc(-c4cccc(CN(C(=O)c5cc(C)nn5C)C5CC5)c4)cc23)c1` [Example 402, N-cyclopropyl-1,3-dimethyl-N-(3-(4-(3-methylbenzylamino)quinazolin-6-yl)benzyl)-1H-pyrazole-5-carboxamide], `COCC(=O)N(Cc1cccc(-c2ccc3ncnc(NCc4cccc(C)c4)c3c2)c1)C1CC1` [Example 434, N-cyclopropyl-2-methoxy-N-(3-(4-(3-methylbenzylamino)quinazolin-6-yl)benzyl)acetamide] is higher in inhibition at 10 µM: 34% for the first, 62% for the second.

Compared with `Cc1cccc(CNc2ncnc3ccc(-c4cccc(CN(C(=O)c5ccncc5)C5CC5)c4)cc23)c1` [Example 403, N-cyclopropyl-N-(3-(4-(3-methylbenzylamino)quinazolin-6-yl)benzyl)isonicotinamide], `CN(C)CC(=O)N(Cc1cccc(-c2ccc3ncnc(NCCc4ccccc4)c3c2)c1)C1CC1` [Example 417, N-cyclopropyl-2-(dimethylamino)-N-(3-(4-(phenethylamino)quinazolin-6-yl)benzyl)acetamide] is higher in inhibition at 10 µM: 40% for the first, 60% for the second.

Compared with `O=C(Cc1ccccc1)N(Cc1cc(-c2ccc3ncnc(NC4CC4)c3c2)ccc1F)C1CC1` [Example 406, N-cyclopropyl-N-(5-(4-(cyclopropylamino)quinazolin-6-yl)-2-fluorobenzyl)-2-phenylacetamide], `O=C(CCc1ccccc1)N(Cc1cc(-c2ccc3ncnc(NC4CC4)c3c2)ccc1F)C1CC1` [Example 414, N-cyclopropyl-N-(5-(4-(cyclopropylamino)quinazolin-6-yl)-2-fluorobenzyl)-3-phenylpropanamide] is lower in inhibition at 10 µM: 95% for the first, 93% for the second.

`O=S(=O)(c1cccs1)N(Cc1cc(-c2ccc3ncnc(NC4CC4)c3c2)ccc1F)C1CC1` [Example 407, N-cyclopropyl-N-(5-(4-(cyclopropylamino)quinazolin-6-yl)-2-fluorobenzyl)thiophene-2-sulfonamide] and `CC(C)S(=O)(=O)N(Cc1cc(-c2ccc3ncnc(NC4CC4)c3c2)ccc1F)C1CC1` [Example 429, N-cyclopropyl-N-(5-(4-(cyclopropylamino)quinazolin-6-yl)-2-fluorobenzyl)propane-2-sulfonamide] are the same in inhibition at 10 µM: 92% for the first, 92% for the second.

First: CCCCC(=O)N(Cc1cccc(-c2ccc3ncnc(NCCc4ccccc4)c3c2)c1)C1CC1 [Example 409, N-cyclopropyl-N-(3-(4-(phenethylamino)quinazolin-6-yl)benzyl)pentanamide]
Second: O=C(c1ccccn1)N(Cc1cc(-c2ccc3ncnc(NC4CC4)c3c2)ccc1F)C1CC1 [Example 428, N-cyclopropyl-N-(5-(4-(cyclopropylamino)quinazolin-6-yl)-2-fluorobenzyl)picolinamide]
The inhibition at 10 µM of the first is lower: 32% for the first, 96% for the second.

Compared with `O=C(c1ccccc1C(F)(F)F)N(Cc1cc(-c2ccc3ncnc(NC4CC4)c3c2)ccc1F)C1CC1` [Example 413, N-cyclopropyl-N-(5-(4-(cyclopropylamino)quinazolin-6-yl)-2-fluorobenzyl)-2-(trifluoromethyl)benzamide], `O=C(c1cc(Cl)cc(Cl)c1)N(Cc1cc(-c2ccc3ncnc(NC4CC4)c3c2)ccc1F)C1CC1` [Example 421, 3,5-dichloro-N-cyclopropyl-N-(5-(4-(cyclopropylamino)quinazolin-6-yl)-2-fluorobenzyl)benzamide] is lower in inhibition at 10 µM: 89% for the first, 81% for the second.

First: O=S(=O)(c1cccc2cccnc12)N(Cc1cc(-c2ccc3ncnc(NC4CC4)c3c2)ccc1F)C1CC1 [Example 415, N-cyclopropyl-N-(5-(4-(cyclopropylamino)quinazolin-6-yl)-2-fluorobenzyl)quinoline-8-sulfonamide]
Second: CN(c1ncnc2ccc(-c3ccc(F)c(CN(C(=O)c4cccs4)C4CC4)c3)cc12)C1CC1 [Example 427, N-cyclopropyl-N-(5-(4-(cyclopropyl(methyl)amino)quinazolin-6-yl)-2-fluorobenzyl)thiophene-2-carboxamide]
The inhibition at 10 µM of the first is lower: 53% for the first, 95% for the second.

In the case of `CN(c1ncnc2ccc(-c3ccc(F)c(CN(C(=O)c4ccco4)C4CC4)c3)cc12)C1CC1` [Example 420, N-cyclopropyl-N-(5-(4-(cyclopropyl(methyl)amino)quinazolin-6-yl)-2-fluorobenzyl)furan-2-carboxamide], the inhibition at 10 µM is reported as 94%.
